From patent US4215049A, “Antitumorigenic lactone derivative” (Nippon Kayaku Kabushiki Kaisha, priority 1977, dated 1980) come the findings set out here.

The inhibition is the drop in the measured response relative to a control, in per cent.

Values after ≈ are worked out from the molar mass of the structure shown.

Assay [1] concerns Ehrlich ascites cancer cells. In words: Life-prolonging effect for mice suffering from Ehrlich ascites cancer. The format is in vivo, mice (ICR/JCL). Particulars: for Life prolongation rate: average survival days, control group indexed as 100; for life-prolonging effect for mice with Ehrlich ascites cancer (in words): in comparison with the control mice. As for the experimental part:
The mice of ICR/JCL species (.male., 5-week-old, 5 mice per group) were intraperitoneally inoculated with 2,000,000 pieces of Ehrlich ascites cancer cells, and the compounds of this invention were administered, starting 2 hours after inoculation, in the dosages shown in Table 5 below once a day for a total period of 10 days.
the drug treated groups as calculated with the average number of survival
days of the control group being indexed as 100.

The next assay concerns HeLa S3 cells. In words: Inhibitory effect against growth of HeLa S3 cells (in vitro). The format is cell-based. Particulars: for IC50: 72 h, HeLa S3 cells, read-out: ID50 (the source's name); for inhibitory effect against growth of cancer (HeLa) cells (in words): low concentration. As for the experimental part:
The roots (0.3 kg by half-dry weight), stalks (1.6 kg by half-dry weight) and leaves (2.1 kg by half-dry weight) were ground and extracted respectively with methanol. Each liquid extract was filtered and the filtrate was concentrated under reduced pressure to obtain an oily residue containing the object compounds.
(Note) The inhibitory effect against growth of the HeLa cells was determined in the manner described below.
The HeLa S3 cells were spread on 6 cm-diameter plastic laboratory plates in the amount of 0.7×10^5 cells/plate and cultured by using an MEM medium containing 60 μg/ml of kanamycin and 10% calf serum. 2 days later, the medium was replaced with one containing the compounds of this invention. The cell population at that time was 1.58×10^5 cells/plat. After addition of the compounds, the cells were cultured for three days, and then, after removing the medium, the culture was washed with a physiological saline solution, treated with 0.05% trypsin at room temperature for about 15 minutes, and then pipetted and dispersed. The number of surviving cells was counted by a […], and percent inhibition was measured by counting the number of the living cells in the control section to determine ID50. [formula]

The mark [2] stands for this setting: 7.50 mg/kg once a day for 10 days.
The mark [3] stands for this setting: 15.0 mg/kg once a day for 10 days.

In the case of `C=C1C(=O)OC2C=C(C)C(OC(C)=O)CC=C(C)CC(O)C12` (stereo not shown) [III], the Life prolongation rate was 95 in assay [1] (setting [2]) and 108 in assay [1] (setting [3]). Moreover, in assay [1] (mouse, in vivo), the “effect of compound III compared with compounds I and II (in words)” value was “not so conspicuous in effect as the compounds I and II”.

Regarding `C=C1C(=O)OC2C=C(C)C(OC(C)=O)CC=C(C)CC(OC(=O)C(C)=CCO)C12` (stereo not shown) [II], the Life prolongation rate was found to be 159 in assay [1] (setting [2]) and 173 in assay [1] (setting [3]). In addition, the “life-prolonging effect for mice with Ehrlich ascites cancer (in words)” value in assay [1] is on record as “prominent life-prolonging effect”. In the assay on HeLa S3 cells (Homo sapiens, 3 days), the IC50 is 0.62 µg/mL (≈ 1.53 µM). In addition, the inhibition at 0.375 µg/mL in the assay on HeLa S3 cells (Homo sapiens, HeLa S3, 72 h, 0.375 μg/ml, 3 days, read-out: Percent inhibition) was determined as 28.4%. Moreover, the inhibition at 0.75 µg/mL with HeLa S3 cells (Homo sapiens, HeLa S3, 72 h, 0.75 μg/ml, 3 days, read-out: Percent inhibition) came out at 57%. In the assay on HeLa S3 cells (Homo sapiens, HeLa S3, 72 h, 1.5 μg/ml, 3 days, read-out: Percent inhibition), the inhibition at 1.5 µg/mL is 100%. Moreover, the “inhibitory effect against growth of cancer (HeLa) cells (in words)” value with HeLa S3 cells is “high inhibitory effect against growth of the cancer cells”.

With `C=C1C(=O)OC2C=C(C)C(OC(C)=O)CC=C(C)CC(OC(=O)C(=CCO)CO)C12` (stereo not shown) [Compound I], the Life prolongation rate in assay [1] (setting [2]) was 253; in assay [1] (setting [3]), 232. The “life-prolonging effect for mice with Ehrlich ascites cancer (in words)” value in assay [1] was “prominent life-prolonging effect”. The IC50 with HeLa S3 cells (Homo sapiens, 3 days) turned out to be 1.4 µg/mL (≈ 3.33 µM). For the same compound, in the assay with HeLa S3 cells (Homo sapiens, HeLa S3, 72 h, 1 μg/ml, 3 days, read-out: Percent inhibition), the inhibition at 1 µg/mL amounted to 29.4%. The inhibition at 2 µg/mL with HeLa S3 cells (Homo sapiens, HeLa S3, 72 h, 2 μg/ml, 3 days, read-out: Percent inhibition) is 74.9%. Further, in the assay on HeLa S3 cells (Homo sapiens, HeLa S3, 72 h, 4 μg/ml, 3 days, read-out: Percent inhibition), the inhibition at 4 µg/mL amounted to 100%. Further, the “inhibitory effect against growth of cancer (HeLa) cells (in words)” value with HeLa S3 cells was “high inhibitory effect against growth of the cancer cells”.
